{"source": "patent US20090105277A1", "about": "“AGENT FOR PREVENTING AND/OR TREATING MOVEMENT DISORDER” (KYOWA HAKKO KOGYO CO., LTD., priority 2005, published 2009)", "key": {"[1]": {"system": "involuntary movement (e.g., dyskinesia) model rats", "assay": "Abnormal involuntary movements (AIMs) in involuntary movement (dyskinesia) model rats given repeated L-DOPA", "type": "in vivo, rat", "conditions": "for AIMs score axial, limb, orolingual, day 1-3 / AIMs score locomotive, day 1-3 / AIMs score axial, limb, orolingual, day 8-10 / AIMs score locomotive, day 8-10: oral, multiple doses; for AIMs score axial, limb, orolingual, post value / AIMs score locomotive, post value: after 3-day drug withdrawal, L-DOPA (20 mg/kg) administered; for onset of dyskinesia: combined administration with L-DOPA 10 mg/kg, compared to single administration of L-DOPA 20 mg/kg", "text": "It is known that abnormal involuntary movements (AIMS) are developed by repeated administration of L-DOPA to the Parkinson's disease model rat prepared by the method described in Test Example 1, and the treated rat is used as a model of an involuntary movement such as dyskinesia, or the like. AIMs are classified into 4 kinds: (1) axial AIMs: deflection or torsion of head, neck, and trunk towards the contralateral side of lesioned side of the brain, (2) limb AIMs: movements of mainly forelimb on the contralateral side of the lesioned side of the brain (bending or extension in the perpendicular direction or movements in the horizontal•back and forth directions, opening and closure of the digits etc.); (3) orolingual AIMs: jaw movements, facial distortion, tongue protrusion (accompanying behavior of biting hair, skin of forelimb on the contralateral side of the lesioned side); and (4) locomotive AIMs: contralateral rotational behavior. Of these, locomotive AIMs are induced by dopamine agonists such as bromocriptine causing less dyskinesia, and are not suppressed by a drug having an […] activity such as amantadine. From these, locomotive AIMs have been reported to reflect normal movements improved by an antiparkinsonian effect (Neurobiology of Disease, 2002, vol. 10, p. 165-86; European Journal of Neuroscience, 2002, vol. 15, p. 120-132). […] The frequency of the above-mentioned four kinds of AIMs were scored in 0 to 4 points (0 point: no symptom, 1 point: appearance in less than 50% of observation time, 2 points: appearance in 50% or more of observation time, 3 points: symptom is maintained but prevented by strong sensory stimuli, 4 points: symptom is maintained and is not prevented by strong sensory stimuli). As for axial AIMs and limb AIMs, the amplitude thereof was scored in 1 to 4 points (axial AIMs; 1 point: deflection of head and neck is less than 30 degrees, 2 points: deflection of head and neck is not less than 30 degrees and less than 60 degrees, 3 points: deflection and torsion of head, neck and upper trunk is not less than 60 degrees and less than 90 degrees, 4 points: deflection and torsion of head, neck and trunk is 90 degrees or more and balance is lost, limb AIMs; 1 point: tiny oscillatory movements of limb and distal forelimb, 2 points: low amplitude but visible translocation of both distal and proximal limbs, 3 points: translocation of the whole limb with visible contraction of shoulder muscles, 4 points: strong movements of limb and shoulder at maximul amplitude). SD male rats (6-week-old, CHARLES RIVER LABORATORIES JAPAN, INC.) were used for the test. Parkinson's disease model rats were prepared according to the method described in Test Example 1. After a postoperative period of 6 days or longer, L-DOPA (20 mg/kg/day) was repetitively and orally administered once or twice per day to give a model rat of involuntary movement such as dyskinesia, or the like. […] The rats almost free of AIMs after the lapse of 1 week or longer from repetitive administration of L-DOPA were removed. As the group constitution, an L-DOPA 20 mg/kg and 0.5% MC solution administration group (single administration group) and an L-DOPA 10 mg/kg and test compound administration group (combined administration group) were used. The test compound was used in the same dose as in Test Example 1, whereby the conditions under which both the single administration group and the combined administration group show the same level of antiparkinsonian activity were set. After grouping, multiple doses of L-DOPA 20 mg/kg and 0.5% MC solution, and L-DOPA 10 mg/kg and test compound were orally administered, respectively. […] After the completion of administration, a 3-day drug withdrawal period was taken, and then L-DOPA (20 mg/kg) was administered. The AIMs score at this time was taken as the post value. The AIMs score of each group was expressed as mean±standard deviation of total AIMs score observed in individual rats for one day. […]"}, "[2]": {"system": "6-OHDA treated rats (Parkinson's disease model rat)", "assay": "L-DOPA induced contralateral rotational behavior (antiparkinsonian effect) in the Parkinson's disease model rats", "type": "in vivo", "conditions": "for number of rotations: oral, total count in 3 hr; for antiparkinsonian activity compared with single administration of L-DOPA 20 mg/kg: L-DOPA 10 mg/kg and test compound combined; for effect on L-DOPA induced rotational behavior, namely antiparkinsonian activity: combined with L-DOPA 10 mg/kg, vs L-DOPA 10 mg/kg + 0.5% MC solution"}, "[3]": {"conditions": "L-DOPA (20 mg/kg) + 0.5% MC solution (single administration)"}, "[4]": {"conditions": "group L-DOPA (20 mg/kg) + 0.5% MC solution"}, "[5]": {"conditions": "L-DOPA (10 mg/kg) + compound 1 (30 mg/kg)"}, "[6]": {"conditions": "group L-DOPA (10 mg/kg) + compound 1 (30 mg/kg)"}, "[7]": {"conditions": "L-DOPA (10 mg/kg) + compound 2 (1 mg/kg)"}, "[8]": {"conditions": "group L-DOPA (10 mg/kg) + compound 2 (1 mg/kg)"}}, "note": "Several values for one entry are separate records, joined by “and”; a condition that tells them apart may be missing. Identical values can stand only once."}
{"smiles": "N[C@@H](Cc1ccc(O)c(O)c1)C(=O)O", "note": "[L-DOPA, reference compound]", "values": [{"measurement": "AIMs score axial, limb, orolingual, day 1-3", "setting": "[1]; [3]", "value": "272.9 ± 25.9 and 271.9 ± 12.6"}, {"measurement": "AIMs score locomotive, day 1-3", "setting": "[1]; [3]", "value": "16.0 ± 2.1 and 12.4 ± 2.6"}, {"measurement": "AIMs score axial, limb, orolingual, day 8-10", "setting": "[1]; [3]", "value": "291.7 ± 16.7 and 232.4 ± 26.2"}, {"measurement": "AIMs score locomotive, day 8-10", "setting": "[1]; [3]", "value": "16.1 ± 2.1 and 13.6 ± 1.7"}, {"measurement": "AIMs score axial, limb, orolingual, post value", "setting": "[1]; [4]", "value": "129.3 ± 14.3 and 139.1 ± 12.6"}, {"measurement": "AIMs score locomotive, post value", "setting": "[1]; [4]", "value": "16.3 ± 2.8 and 15.0 ± 1.4"}, {"measurement": "number of rotations", "setting": "[2]; L-DOPA (10 mg/kg) + 0.5% MC solution (single administration)", "value": "534.3 ± 123.4 and 367.3 ± 140.6"}]}
{"smiles": "CC(C)(O)CCN1CCN(c2cc3nc(-c4ccco4)nn3c(N)n2)CC1", "note": "[compound 1]", "values": [{"measurement": "AIMs score axial, limb, orolingual, day 1-3", "setting": "[1]; [5]", "value": "78.3 ± 17.2"}, {"measurement": "AIMs score locomotive, day 1-3", "setting": "[1]; [5]", "value": "16.3 ± 3.5"}, {"measurement": "AIMs score axial, limb, orolingual, day 8-10", "setting": "[1]; [5]", "value": "105.0 ± 24.1"}, {"measurement": "AIMs score locomotive, day 8-10", "setting": "[1]; [5]", "value": "16.4 ± 3.9"}, {"measurement": "onset of dyskinesia", "setting": "[1]", "value": "significant suppression"}, {"measurement": "AIMs score axial, limb, orolingual, post value", "setting": "[1]; [6]", "value": "106.9 ± 14.0"}, {"measurement": "AIMs score locomotive, post value", "setting": "[1]; [6]", "value": "17.1 ± 3.1"}, {"measurement": "antiparkinsonian activity compared with single administration of L-DOPA 20 mg/kg", "setting": "[2]", "value": "same level"}, {"measurement": "number of rotations", "setting": "[2]; L-DOPA (10 mg/kg) + compound 1 (30 mg/kg), mean±standard deviation", "value": "1732.2 ± 305.2"}, {"measurement": "effect on L-DOPA induced rotational behavior, namely antiparkinsonian activity", "setting": "[2]", "value": "significantly enhanced"}]}
{"smiles": "COCCOc1ccc(N2CCN(CCn3ncc4c3nc(N)n3nc(-c5ccco5)nc43)CC2)cc1", "note": "[compound 2]", "values": [{"measurement": "AIMs score axial, limb, orolingual, day 1-3", "setting": "[1]; [7]", "value": "146.4 ± 13.3"}, {"measurement": "AIMs score locomotive, day 1-3", "setting": "[1]; [7]", "value": "14.8 ± 1.7"}, {"measurement": "AIMs score axial, limb, orolingual, day 8-10", "setting": "[1]; [7]", "value": "117.5 ± 15.5"}, {"measurement": "AIMs score locomotive, day 8-10", "setting": "[1]; [7]", "value": "14.4 ± 1.7"}, {"measurement": "onset of dyskinesia", "setting": "[1]", "value": "significant suppression"}, {"measurement": "AIMs score axial, limb, orolingual, post value", "setting": "[1]; [8]", "value": "159.8 ± 24.7"}, {"measurement": "AIMs score locomotive, post value", "setting": "[1]; [8]", "value": "13.1 ± 1.7"}, {"measurement": "antiparkinsonian activity compared with single administration of L-DOPA 20 mg/kg", "setting": "[2]", "value": "same level"}, {"measurement": "number of rotations", "setting": "[2]; L-DOPA (10 mg/kg) + compound 2 (1 mg/kg), mean±standard deviation", "value": "1543.5 ± 263.2"}, {"measurement": "effect on L-DOPA induced rotational behavior, namely antiparkinsonian activity", "setting": "[2]", "value": "significantly enhanced"}]}
